{"source": "patent US9381273B2", "about": "“Scaffolds with oxygen carriers, and their use in tissue regeneration” (Yissum Research Development Company of the Hebrew …, priority 2008, dated 2016)", "key": {"[1]": {"tested_on": "tet-off BMP2 Luc/GFP cells", "assay": "Cell survival in ectopic implants, bioluminescence imaging (BLI)", "format": "in vivo, C3H/HeN mice", "settings": "fibrin gel, 5% and 10% PFTBA groups pooled", "from_the_text": "Imaging of cell viability in vivo—Tet-off BMP2 Luc/GFP Cell viability in the ectopic implants was quantified using the BLI system as was described (Bar, Zilberman et al. 2003). This CCCD tracking system (Roper Chemiluminescence Imaging System) consists of a CCCD camera (model LN/CCD-1300EB; Roper Scientific Inc.) equipped with an ST-133 controller and a 50-mm Nikon lens (Nikon Inc.). In this system, a pseudocolor image represents light intensity (blue signifies least intense and red most intense). The integrated light is the result of 2-minute exposure and acquisition. This CCCD camera converts photons to electrons with an efficiency of approximately 90% in the wavelength emission range of luciferin and converts approximately 1.8 electrons per count. Thus, every count represents 2 photons. The measurement is a total integrated signal of a constant exposure interval. […] The measurement can be verified by using a progressively larger region of interest (ROI) and by subtracting background readings. An increase in the ROI has no appreciable effect on the total intensity that is measured. Before light detection, the mice were anesthetized with a ketamine-xylazine mixture, which is injected intraperitoneally at 1 μl/g body weight. […]"}, "osteocalcin": {"tested_on": "osteocalcin", "assay": "Host osteocalcin gene expression in vivo, BLI in OC/Luc transgenic mice", "parameters": "species or system OC/Luc Tg mice", "settings": "fibrin gel with MSCs, 5 or 10% PFTBA pooled", "from_the_text": "Osteocalcin gene expression in vivo—In order to analyze the effect of PFTBA supplementation on osteocalcin gene expression in vivo, transgenic mice (Oc-Luc), which harbor the Luc gene under the control of the osteogenic tissue-specific promoter, osteocalcin (Bar, Zilberman et al. 2003) were utilized. In order to monitor Luc activity in real-time a quantitative, the BLI system with the non-invasive cooled charge-coupled device (CCCD) camera was used. In this model, osteogenic activity in the transgenic mice was reported by Luc expression, which is activated by the osteocalcin promoter. This activity is detected by the CCCD as an emitted light following an injection of luciferin. The result values were normalized to constitutive tail expression of Luc, as previously described (Bar, Zilberman et al. 2003), so that the different mice that express the transgene with different intensities could be compared. In this experiment, 1×10^6 tet-off BMP2 cells in fibrin gel supplemented with 5 or 10% PFTBA, or not supplemented at all were implanted."}, "C3H/HeN mice [2]": {"tested_on": "C3H/HeN mice", "assay": "Cell-mediated posterior spinal fusion, micro CT", "format": "in vivo", "settings": "10% PFTBA"}, "tet-off BMP-2 MSCs": {"tested_on": "tet-off BMP-2 MSCs", "assay": "LDH release cytotoxicity assay of MSCs in fibrin gel in vitro", "format": "cell-based", "settings": "10% PFTBA (w/v) in 100 μl fibrin gel, 10^6 MSCs, days 1 and 3 after cell seeding", "description": "Effect of PFTBA on cell survival and oxygen levels—10^6 tet-off BMP-2 MSCs were suspended in 100 μl fibrin gel and cultured in 35-mm plates. In these conditions, the inner region of the hydrogel is hypoxic (data not shown). The experimental groups included hydrogels which included 0% or 10% PFTBA (w/v). Cell death was measured using the LDH release cytotoxicity assay on Days 1, 3, 7 and 14. […] Note that cytotoxicity was reduced over time, probably since nutrients and oxygen supply were more available to the remaining surviving cells. In a separate experiment, oxygen levels were measured in the center of MSC-loaded gels ([…] in 300 μl fibrin gel) using the Microx TX3 oxygen sensor (Presens, Precision Sensing GmbH, Regensburg, Germany)."}, "C3H/HeN mice [3]": {"tested_on": "C3H/HeN mice", "assay": "Radius bone defect regeneration, micro CT", "settings": "2.5-mm radius defect, fibrin gel with MSCs, 14 days", "procedure": "Briefly, C3H/HeN female mice aged 6-8 weeks (n=16) were anesthetized using ketamine-xylazine mixture injected intraperitoneal. The skin of the forelimb was swabbed with isopropyl alcohol (70%). The skin was cut and 2.5 mm-long defect was created in the radius bone. Approximately one million Tet-off BMP2 cells were suspended in fibrin gel (Baxter) and supplemented with 5 or 10% PFTBA (Sigma, n=5 for each group) or not supplemented at all (n=6). The cell-gel mixture was incubated for 5 minutes in room temperature (RT) under sterile conditions to allow the fibrin to gel, and was subsequently implanted into the defect site. The mice were sacrificed 2 weeks post-transplantation; limbs were harvested and scanned using the μCT in order to analyze bone formation.\nA quantitative morphometric analysis of the bone formation in nonunion fractures, was undertaken using μCT as previously described (Tai, K., et al., 2008, Tissue Eng Part A 14, 1709-1720). Mouse forelimbs, including ulna and radius, as well as native muscle and soft tissue were scanned using a Desktop Cone-Beam Micro-CT Scanner (μCT 40; Scanco Medical AG, Bruttisellen, Switzerland) at a spatial nominal resolution of 20 mm. A constrained 3D Gaussian filter (sigma=0.8 and support=1) was used to partly suppress the noise in the volumes. The bone tissue was segmented from marrow and soft tissue using a global thresholding procedure. In the nonunion fracture site, the evaluation was done only in the central 2-mm of the bone defect, including only newly formed bone. Morphometric indices were determined as described earlier."}, "C3H/HeN mice [4]": {"tested_on": "C3H/HeN mice", "assay": "Ectopic bone formation by subcutaneous hydrogel implants with Tet-off BMP2 MSCs, micro CT and histology", "settings": "for bone volume of ectopic bone: SC implant, mean±standard error", "procedure": "Ectopic implantations—At near confluency, Tet-off BMP2 cells or Tet-off BMP2 Luc/GFP cells were trypsinized and counted using the trypan blue exclusion method. Aliquots of cells (one million Tet-off BMP2 cells or 3 million Tet-off BMP2 Luc/GFP cells) were resuspended in 50111 of fibrin or silk gel. Five, 10 or 20% [weight per volume (w/v)] Heptacosafluorotributylamine (Perfluorotributylamine, PFTBA, Sigma catalogue number H5262; Sigma-Aldrich, St Louis, Mo., USA) was added to the hydrogel just before implantations.\nThe cell-hydrogel mixture was injected subcutaneously in 8 weeks old female C3H/HeN mice, as follows: mice were anesthetized with a mixture of xylazine and ketamine (0.15% xylazine and 0.85% ketamine), which was injected intraperitoneally (i.p.) at 1 μl/g body weight. The area of injection was shaved and cleaned using 70% ethanol. Using 27G tuberculin syringe the cells-gel mixture was injected subcutaneously. Each mouse received 3 or 4 implants, consistent of 50 μl hydrogel in which cells and PFTBA were mixed. Mice where sacrificed after two weeks, and implants were harvested and fixed in 4% formalin.\nAnalysis of bone formation using micro CT imaging—In order to quantify bone formation in the ectopic implants, a high-resolution μCT system, Desktop μCT 40 (Scanco Medical A G, Bassersdorf, Switzerland) was used. Micro-tomographic slices were acquired at 1000 projections and reconstructed at a spatial nominal resolution of 12 μm. A constrained 3-D Gaussian filter (σ=0.8 and support=1) was used to partly suppress the noise in the volumes. The mineralized tissue was segmented from the hydrogel using a global thresholding procedure (Muller, R., and Ruegsegger, P. 1997, Stud Health Technol Inform 40, 61-79). In addition to the visual assessment of structural images, morphometric indices were determined from the microtomographic datasets using direct 3D morphometry (Hildebrand, T., 1999, J Bone Miner Res 14, 1167-1174). […] The following morphometric indices were determined for the newly formed bone: (i) volume of bone tissue; (ii) bone mineral density; (iii) trabecular thickness; (iv) anisotropy; (v) bone volume density and (vi) trabecular separation.\nHistological analysis of bone formation—Harvested ectopic implants and regenerated limbs were processed for histology and stained as described (Sheyn, Kimelman-Bleich et al. 2007). In short, samples were fixed in 70% ethanol, passed through a graded series of ethanols, and embedded in paraffin. Sections 5-8 μm thick were cut from each paraffin block using a motorized microtome (Leica Microsystems, Wetzlar, Germany). Masson trichrom staining was performed in order to evaluate the histomorphology of the mineralized tissue."}, "[5]": {"settings": "fibrin gel with MSCs, 10% PFTBA (w/v), two weeks"}}, "data": [{"smiles": "FC(F)(F)C(F)(F)C(F)(F)C(F)(F)N(C(F)(F)C(F)(F)C(F)(F)C(F)(F)F)C(F)(F)C(F)(F)C(F)(F)C(F)(F)F", "note": "[PFTBA, Heptacosafluorotributylamine]", "values": [{"measurement": "luciferase activity (cell survival)", "setting": "[1]; day 3 post implantation", "result": "21,519±2,047 integrated light units (ILU)"}, {"measurement": "luciferase activity (cell survival) versus no-PFTBA group", "setting": "[1]; day 7 post implantation", "result": "no significant difference between the groups was found"}, {"measurement": "osteocalcin activity", "setting": "osteocalcin; day 5 post-implantation", "result": "2.76±0.48 relative light units (RLU; implant/tail)"}, {"measurement": "osteocalcin activity versus no PFTBA group", "setting": "osteocalcin; day 7 and 14", "result": "no significant difference was noted"}, {"measurement": "average connectivity density elevation versus no PFTBA group", "setting": "C3H/HeN mice [2]; week 3 post-implantation", "result": 1.29, "unit": "fold"}, {"measurement": "bone volume density elevation versus no PFTBA group", "setting": "C3H/HeN mice [2]; week 3 post-implantation", "result": 1.25, "unit": "fold"}, {"measurement": "bone volume difference versus no PFTBA group", "setting": "C3H/HeN mice [2]; week 3 post-implantation", "result": "this difference was not noted"}, {"measurement": "trabecular number increase versus no PFTBA group", "setting": "C3H/HeN mice [2]; week 3 post-implantation", "result": 1.44, "unit": "fold"}, {"measurement": "bone volume of spinal fusion mass", "setting": "C3H/HeN mice [2]; fibrin gel with MSCs, lumbar paravertebral muscle, 6 weeks post implantation", "result": "70.71±2.7", "unit": "mm^3"}, {"measurement": "cell death (LDH release cytotoxicity) versus 0% PFTBA", "setting": "tet-off BMP-2 MSCs", "result": "significantly fewer cells died"}, {"measurement": "volume of bone formed versus no PFTBA", "setting": "C3H/HeN mice [3]; 5 or 10% PFTBA (w/v)", "result": "no significant difference"}, {"measurement": "BMD elevation of the formed bone, supplemented versus non-supplemented", "setting": "C3H/HeN mice [3]; 5 or 10% PFTBA", "result": "1.1-1.2"}, {"measurement": "trabecular thickness elevation versus no-PFTBA group", "setting": "C3H/HeN mice [3]; 5 or 10% PFTBA", "result": 1.3, "unit": "fold"}, {"measurement": "bone volume of ectopic bone", "setting": "C3H/HeN mice [4]; fibrin gel with MSCs, 5% PFTBA (w/v), two weeks", "result": "0.98±0.26", "unit": "mm^3"}, {"measurement": "bone volume of ectopic bone", "setting": "C3H/HeN mice [4]; [5]", "result": "1.77±0.47", "unit": "mm^3"}, {"measurement": "increase in bone volume compared with the 0% PFTBA group", "setting": "C3H/HeN mice [4]; [5]", "result": 2.5, "unit": "fold"}, {"measurement": "histology of implants (bone, hypertrophic cartilage, bone marrow)", "setting": "C3H/HeN mice [4]; fibrin gel, 0%, 5%, 10% PFTBA, day 14, Masson trichrom", "result": "No histological difference was found"}, {"measurement": "volume of the ectopic bone versus no PFTBA group", "setting": "C3H/HeN mice [4]; two weeks, 1-tailed T-test p=0.033", "result": "significant differences were found"}]}]}
